Numbers after ± are expanded uncertainties.

Our source for the activity coefficient values is the NIST ThermoML archive (doi:10.1021/je100529s).

The nature of this series: activity coefficient (dimensionless); of the first substance listed, at infinite dilution; xn = mol fraction of the nth substance listed. The conditions noted are these: Liquid, Gas Stripping Method, x1 = 0.

With `CCCl` [chloroethane] + Cc1cccc(O)c1, the activity coefficient (289.97 K) was determined as 2.13 ± 0.13; the activity coefficient (299.98 K) worked out at 2.1 ± 0.13; the activity coefficient (309.98 K) came to 2.05 ± 0.12; the activity coefficient (319.99 K) worked out at 1.99 ± 0.12; the activity coefficient (329.99 K) amounted to 1.93 ± 0.12.
`C=C(C)C` [2-methylpropene] + Cc1ccccc1O: the activity coefficient is, setting by setting: (299.99 K) 4.11 ± 0.25; (309.99 K) 3.98 ± 0.24; (319.99 K) 3.84 ± 0.23; (329.99 K) 3.7 ± 0.22.
For `C=CC=C` [1,3-butadiene] + Cc1ccccc1O, the activity coefficient (299.99 K) is 2.87 ± 0.17, the activity coefficient (309.99 K) came to 2.81 ± 0.17, the activity coefficient (319.99 K) stood at 2.72 ± 0.16 and the activity coefficient (329.99 K) is 2.63 ± 0.16.
`C=C(C)C` [2-methylpropene] + Cc1ccc(O)cc1: the activity coefficient came to 4.44 ± 0.27 (309.99 K), 4.34 ± 0.26 (319.99 K), 4.2 ± 0.25 (329.99 K) and 4.07 ± 0.24 (340.02 K).
As to `CCC` [propane] + Cc1cccc(O)c1, the activity coefficient reads like this: (289.98 K) 6.31 ± 0.38; (299.98 K) 6.36 ± 0.38; (309.99 K) 6.24 ± 0.37; (319.99 K) 6.06 ± 0.36; (329.99 K) 5.88 ± 0.35.
Take `C=CCC` [1-butene] + Cc1cccc(O)c1: the activity coefficient (289.98 K) was 4.86 ± 0.29; the activity coefficient (299.98 K) amounted to 4.75 ± 0.29; the activity coefficient (309.99 K) turned out to be 4.62 ± 0.28; the activity coefficient (319.99 K) came to 4.48 ± 0.27; the activity coefficient (329.99 K) stood at 4.36 ± 0.26.
Turning to `CCCC` [butane] + Cc1ccc(O)cc1, the activity coefficient came out at 6.88 ± 0.41 (309.99 K), 6.62 ± 0.4 (319.99 K), 6.32 ± 0.38 (329.99 K) and 6.09 ± 0.37 (340.02 K).
On to `CCC` [propane] + Cc1ccccc1O, for which the activity coefficient was 6.34 ± 0.38 (299.99 K), 6.04 ± 0.36 (309.99 K), 5.83 ± 0.35 (319.99 K) and 5.58 ± 0.33 (329.99 K).
As to `CC(F)F` [1,1-difluoroethane] + Cc1ccccc1O, the activity coefficient is 4.02 ± 0.24 (299.99 K), 3.84 ± 0.23 (309.99 K), 3.67 ± 0.22 (319.99 K) and 3.49 ± 0.21 (329.99 K).
With `CC(C)C` [2-methylpropane] + Cc1cccc(O)c1, the activity coefficient is, setting by setting: (289.98 K) 8.35 ± 0.5; (299.98 K) 8.11 ± 0.49; (309.99 K) 7.87 ± 0.47; (319.99 K) 7.54 ± 0.45; (329.99 K) 7.21 ± 0.43.
`CCCC` [butane] + Cc1ccccc1O: the activity coefficient is, setting by setting: (299.99 K) 6.92 ± 0.42; (309.99 K) 6.61 ± 0.4; (319.99 K) 6.26 ± 0.38; (329.99 K) 5.92 ± 0.36.
As to `CC(F)F` [1,1-difluoroethane] + Cc1cccc(O)c1, the activity coefficient amounted to 4.79 ± 0.29 (289.98 K); 4.59 ± 0.28 (299.98 K); 4.37 ± 0.26 (309.99 K); 4.16 ± 0.25 (319.99 K); 3.98 ± 0.24 (329.99 K).
In the same order, the values of `C=C(C)C` [2-methylpropene] + Cc1cccc(O)c1 are 4.66 ± 0.28, 4.56 ± 0.27, 4.42 ± 0.27, 4.3 ± 0.26 and 4.16 ± 0.25.
In the case of `C=CC=C` [1,3-butadiene] + Cc1ccc(O)cc1, the activity coefficient by setting is: (309.99 K) 3.26 ± 0.2; (319.99 K) 3.16 ± 0.19; (329.99 K) 3.07 ± 0.18; (340.02 K) 2.99 ± 0.18.
As for `CCCl` [chloroethane] + Cc1ccc(O)cc1, the activity coefficient was found to be 2.09 ± 0.13 (309.98 K), 2.06 ± 0.12 (319.98 K), 1.98 ± 0.12 (329.99 K) and 1.93 ± 0.12 (340.01 K).
With `C/C=C\C` [(Z)-2-butene] + Cc1ccccc1O, the activity coefficient (299.99 K) turned out to be 3.79 ± 0.23, the activity coefficient (309.99 K) came out at 3.69 ± 0.22, the activity coefficient (319.99 K) came out at 3.57 ± 0.21 and the activity coefficient (329.99 K) came to 3.44 ± 0.21.
In the case of `C/C=C\C` [(Z)-2-butene] + Cc1ccc(O)cc1, the activity coefficient by setting is: (309.99 K) 4.12 ± 0.25; (319.99 K) 4.03 ± 0.24; (329.99 K) 3.91 ± 0.23; (340.02 K) 3.8 ± 0.23.
`COC` [dimethyl ether] + Cc1ccccc1O: the activity coefficient by setting is: (299.99 K) 0.1 ± 0.01; (309.98 K) 0.12 ± 0.01; (319.98 K) 0.14 ± 0.01; (329.99 K) 0.18 ± 0.01.
In the case of `C=CCC` [1-butene] + Cc1ccccc1O, the activity coefficient reads like this: (299.99 K) 4.29 ± 0.26; (309.99 K) 4.15 ± 0.25; (319.99 K) 4.03 ± 0.24; (329.99 K) 3.87 ± 0.23.
For `C/C=C\C` [(Z)-2-butene] + Cc1cccc(O)c1, the activity coefficient is, setting by setting: (289.98 K) 4.29 ± 0.26; (299.98 K) 4.2 ± 0.25; (309.99 K) 4.09 ± 0.25; (319.99 K) 3.99 ± 0.24; (329.99 K) 3.88 ± 0.23.
As to `C=CC=C` [1,3-butadiene] + Cc1cccc(O)c1, the activity coefficient is 3.32 ± 0.2 (289.98 K); 3.26 ± 0.2 (299.98 K); 3.22 ± 0.19 (309.99 K); 3.13 ± 0.19 (319.99 K); 3.05 ± 0.18 (329.99 K).
For the compound `C=CC` [propene] + Cc1ccccc1O, the activity coefficient turned out to be 3.81 ± 0.23 (299.99 K), 3.71 ± 0.22 (309.99 K), 3.6 ± 0.22 (319.99 K) and 3.48 ± 0.21 (329.99 K).
Regarding `COC` [dimethyl ether] + Cc1ccc(O)cc1, the activity coefficient was found to be 0.16 ± 0.01 (309.98 K), 0.19 ± 0.01 (319.98 K), 0.21 ± 0.01 (329.99 K) and 0.24 ± 0.02 (340.01 K).
For the compound `CC(C)C` [2-methylpropane] + Cc1ccccc1O, the activity coefficient worked out at 7.92 ± 0.48 (299.99 K), 7.57 ± 0.45 (309.99 K), 7.14 ± 0.43 (319.99 K) and 6.73 ± 0.4 (329.99 K).
`CC(F)F` [1,1-difluoroethane] + Cc1ccc(O)cc1: the activity coefficient runs as follows: (309.99 K) 4.46 ± 0.27; (319.99 K) 4.26 ± 0.26; (329.99 K) 4.07 ± 0.24; (340.02 K) 3.88 ± 0.23.
As to `C=CCC` [1-butene] + Cc1ccc(O)cc1, the activity coefficient by setting is: (309.99 K) 4.66 ± 0.28; (319.99 K) 4.55 ± 0.27; (329.99 K) 4.4 ± 0.26; (340.02 K) 4.26 ± 0.26.
As to `C=CC` [propene] + Cc1cccc(O)c1, the activity coefficient (289.98 K) worked out at 4.1 ± 0.25; the activity coefficient (299.98 K) is 4.13 ± 0.25; the activity coefficient (309.99 K) was 4.05 ± 0.24; the activity coefficient (319.99 K) is 3.97 ± 0.24; the activity coefficient (329.99 K) worked out at 3.88 ± 0.23.
For `C/C=C/C` [(E)-2-butene] + Cc1cccc(O)c1, in that order: 4.68 ± 0.28, 4.57 ± 0.27, 4.49 ± 0.27, 4.35 ± 0.26 and 4.23 ± 0.25.
For the compound `CCCC` [butane] + Cc1cccc(O)c1, the activity coefficient (289.98 K) amounted to 7.22 ± 0.43; the activity coefficient (299.98 K) stood at 7.06 ± 0.42; the activity coefficient (309.99 K) is 6.88 ± 0.41; the activity coefficient (319.99 K) is 6.6 ± 0.4; the activity coefficient (329.99 K) came out at 6.33 ± 0.38.
As to `C/C=C/C` [(E)-2-butene] + Cc1ccc(O)cc1, the activity coefficient is, setting by setting: (309.99 K) 4.48 ± 0.27; (319.99 K) 4.35 ± 0.26; (329.99 K) 4.25 ± 0.26; (340.02 K) 4.14 ± 0.25.
With `CCCl` [chloroethane] + Cc1ccccc1O, the activity coefficient (299.99 K) came out at 1.83 ± 0.11, the activity coefficient (309.98 K) worked out at 1.77 ± 0.11, the activity coefficient (319.98 K) is 1.76 ± 0.11 and the activity coefficient (329.99 K) stood at 1.7 ± 0.1.
With `C/C=C/C` [(E)-2-butene] + Cc1ccccc1O, the activity coefficient by setting is: (299.99 K) 4.25 ± 0.26; (309.99 K) 4.13 ± 0.25; (319.99 K) 3.98 ± 0.24; (329.99 K) 3.82 ± 0.23.
On to `C=CC` [propene] + Cc1ccc(O)cc1, for which the activity coefficient runs as follows: (309.99 K) 4.07 ± 0.24; (319.99 K) 4.02 ± 0.24; (329.99 K) 3.92 ± 0.24; (340.02 K) 3.84 ± 0.23.
In the same order, the values of `CCC` [propane] + Cc1ccc(O)cc1 are 6.29 ± 0.38, 6.12 ± 0.37, 5.93 ± 0.36 and 5.74 ± 0.34.
With `COC` [dimethyl ether] + Cc1cccc(O)c1, the activity coefficient was determined as 0.11 ± 0.01 (289.97 K); 0.13 ± 0.01 (299.98 K); 0.15 ± 0.01 (309.98 K); 0.18 ± 0.01 (319.99 K); 0.2 ± 0.01 (329.99 K).
`CC(C)C` [2-methylpropane] + Cc1ccc(O)cc1: the activity coefficient came out at 7.93 ± 0.48 (309.99 K), 7.62 ± 0.46 (319.99 K), 7.3 ± 0.44 (329.99 K) and 7.03 ± 0.42 (340.02 K).
